Results from ChEMBL document CHEMBL4118260, “Structure-based drug design to overcome species differences in kallikrein 7 inhibition of 1,3,6-trisubstituted 1,4-diazepan-7-ones” (Bioorg Med Chem, 2018).
pIC50: −log10 of the molar value.

How the values were obtained:
[1] = target: Kallikrein-7 (Mus musculus) (UniProt Q91VE3); experiment: Inhibition of mouse KLK7 at 30 uM using MOCAcArg-Pro-Lys-Pro-Val-Glu-Nva-Trp-Arg-Lys(Dnp)-NH2 as substrate preincubated for 10 mins followed by substrate addition measured after 30 mins by fluorescence assay relative to control
Kallikrein-7 [2] = target: Kallikrein-7 (Mus musculus, UniProt Q91VE3); experiment: Inhibition of mouse KLK7 using MOCAcArg-Pro-Lys-Pro-Val-Glu-Nva-Trp-Arg-Lys(Dnp)-NH2 as substrate preincubated for 10 mins followed by substrate addition measured after 30 mins by fluorescence assay
Kallikrein-7 [3] = target: Kallikrein-7 (Homo sapiens, UniProt P49862); experiment: Inhibition of recombinant human C-terminal His10-tagged KLK7 (E23 to H252 residues) using MOCAcArg-Pro-Lys-Pro-Val-Glu-Nva-Trp-Arg-Lys(Dnp)-NH2 as substrate preincubated for 10 mins followed by substrate addition measured after 30 mins by fluorescence assay
Chain of Kallikrein-7 (Homo sapiens, UniProt P49862) (P49862 whole entry, the tested form may be a part): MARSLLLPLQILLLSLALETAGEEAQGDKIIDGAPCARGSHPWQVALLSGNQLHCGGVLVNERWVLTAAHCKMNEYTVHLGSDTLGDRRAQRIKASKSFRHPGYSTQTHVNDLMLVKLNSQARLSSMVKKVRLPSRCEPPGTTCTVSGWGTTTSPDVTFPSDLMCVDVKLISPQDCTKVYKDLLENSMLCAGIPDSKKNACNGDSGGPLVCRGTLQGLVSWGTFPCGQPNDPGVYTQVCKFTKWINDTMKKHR

Chain of Kallikrein-7 (Mus musculus, UniProt Q91VE3) (Q91VE3 whole entry, the tested form may be a part): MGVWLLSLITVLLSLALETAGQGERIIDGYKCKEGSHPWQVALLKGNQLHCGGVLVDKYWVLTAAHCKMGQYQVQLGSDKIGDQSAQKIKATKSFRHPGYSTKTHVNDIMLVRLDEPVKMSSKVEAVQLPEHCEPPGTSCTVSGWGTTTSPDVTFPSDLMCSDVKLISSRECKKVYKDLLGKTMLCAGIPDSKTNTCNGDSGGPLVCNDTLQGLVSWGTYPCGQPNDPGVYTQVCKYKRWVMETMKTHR
Chain of Kallikrein-7 (Mus musculus) (Q91VE3 whole entry): as the sequence (Q91VE3 whole entry, the tested form may be a part) above

SMILES	inhibition [1] [%]	pIC50 (Kallikrein-7 [2])	pIC50 (Kallikrein-7 [3])
COc1ccc(Cl)cc1C[C@@H]1CN/C(=N\N(C)C)CN(CC(=O)Nc2cccc(-c3cnn(C)c3)c2)C1=O	-1.2	< 4.52	–
CN(C)/N=C1/CN(CC(=O)Nc2cccc(-c3cnn(C)c3)c2)C(=O)C(Cc2ccccc2C#N)CN1 (racemic)	22	< 4.52	4.77
CN(C)/N=C1/CN(CC(=O)Nc2cccc(-c3cnn(C)c3)c2)C(=O)C(Cc2c(Cl)cccc2Cl)CN1 (racemic)	–	5.92	6.10
CN(C)/N=C1/CN(CC(=O)Nc2cccc(-c3cnn(C)c3)c2)C(=O)C(Cc2c(Cl)cccc2C#N)CN1 (racemic)	–	5.11	4.96
CN(C)/N=C1/CN(CC(=O)Nc2cccc(-c3cnn(C)c3)c2)C(=O)C(Cc2c(F)cccc2Cl)CN1 (racemic)	–	5.22	6.03
COc1cccc(Cl)c1CC1CN/C(=N\N(C)C)CN(CC(=O)Nc2cccc(-c3cnn(C)c3)c2)C1=O (racemic)	67	4.85	4.96
Cc1cccc(Cl)c1CC1CN/C(=N\N(C)C)CN(CC(=O)Nc2cccc(-c3cnn(C)c3)c2)C1=O (racemic)	–	5.80	5.82
Cc1cccc(C)c1CC1CN/C(=N\N(C)C)CN(CC(=O)Nc2cccc(-c3cnn(C)c3)c2)C1=O (racemic)	–	5.42	5.28
CN(C)/N=C1/CN(CC(=O)Nc2cccc(-c3cnn(C)c3)c2)C(=O)C(Cc2c(Cl)cccc2Cl)CN1 (single isomer, unassigned; (-))	–	6.15	6.42

Further lines, results first:

inhibition [1] [%]	pIC50 (Kallikrein-7 [2])	pIC50 (Kallikrein-7 [3])	SMILES
32	< 4.52	–	COc1ccc(Cl)cc1C[C@@H]1CN/C(=N\N(C)C)CN([C@@H](C)C(=O)Nc2cccc(-c3cnn(C)c3)c2)C1=O
11	< 4.52	–	COc1ccc(Cl)cc1C[C@@H]1CN/C(=N\N(C)C)CN(CC(=O)Nc2cccc(C(=O)O)c2)C1=O
41	< 4.52	5.62	COc1ccccc1C[C@@H]1CN/C(=N\N(C)C)CN(CC(=O)Nc2cccc(-c3cnn(C)c3)c2)C1=O
–	< 4.52	5.16	CN(C)/N=C1/CN(CC(=O)Nc2cccc(-c3cnn(C)c3)c2)C(=O)C(Cc2c(F)cccc2F)CN1 (racemic)
–	< 4.52	5.17	COc1cccc(F)c1CC1CN/C(=N\N(C)C)CN(CC(=O)Nc2cccc(-c3cnn(C)c3)c2)C1=O (racemic)
59	4.68	5.60	CN(C)/N=C1/CN(CC(=O)Nc2cccc(-c3cnn(C)c3)c2)C(=O)C(Cc2ccccc2Cl)CN1 (racemic)
–	5.15	4.96	Cc1cccc(C#N)c1CC1CN/C(=N\N(C)C)CN(CC(=O)Nc2cccc(-c3cnn(C)c3)c2)C1=O (racemic)
–	4.72	4.89	COc1cccc(C)c1CC1CN/C(=N\N(C)C)CN(CC(=O)Nc2cccc(-c3cnn(C)c3)c2)C1=O (racemic)
–	< 4.52	5.57	CN(C)/N=C1/CN(CC(=O)Nc2cccc(-c3cnn(C)c3)c2)C(=O)C(Cc2c(F)cccc2C(F)(F)F)CN1 (racemic)
-4.1	< 4.52	5.12	COc1cc(Cl)ccc1CC1CN/C(=N\N(C)C)CN(CC(=O)Nc2cccc(-c3cnn(C)c3)c2)C1=O (racemic)
–	5.11	5.64	Cc1cccc(F)c1CC1CN/C(=N\N(C)C)CN(CC(=O)Nc2cccc(-c3cnn(C)c3)c2)C1=O (racemic)
–	4.80	< 4.52	CN(C)/N=C1/CN(CC(=O)Nc2cccc(-c3cnn(C)c3)c2)C(=O)C(Cc2c(Cl)cccc2Cl)CN1 (stereo in doubt; (+)-22g)
